In patent publication US9487749B2 (priority 2009, dated 2016):
Values joined by “and” are separate entries in the source; they are usually repeats but may differ in a detail not shown here. Equal values may be shown once.

What was measured:
[1] = test system: Lactobacillus acidophilus; experiment: Lactobacillus acidophilus milk growth in simulated gastric acid supplemented with MSM; assay type: cell-based; conditions: for Log Growth of L. acidophilus in milk average / Log Growth of L. acidophilus in milk in duplicate: simulated gastric acid pH 1.2
[2] = test system: Lactobacillus acidophilus ATCC #4356; experiment: Lactobacillus acidophilus growth and recovery in a simulated intestinal tract environment; assay type: cell-based
[3] = test system: Acidophilus plus Bifidus milk microorganisms; experiment: Growth in Acidophilus plus Bifidus milk fortified with MSM; assay type: cell-based; conditions: A/B milk
Text: 31, 2013. […] The Acidophilus milk was low fat (Darigold).

[4] = test system: Bacillus coagulans; experiment: Viability and colony formation of Bacillus coagulans supplemented with MSM (population count, weight, percent transmittance); assay type: cell-based; conditions: for Population Count Average / Population Weight Average: 72 hours; for Population Weight Average: washed pellet; for percent transmittance: 25×25 mm agar section, 546 nm
Protocol: At the end of the 72 hours, the broth was measured for colony formation, with photographic documentation of colony formation on tryptic soy agar. […] For the Bacillus coagulans, the organism was isolated and grown for 24 hours before harvesting. […] One milliliter of Dilution B was used to inoculate the 30 mL of TSB concentrations stated above. […] Each dilution for the microorganism was plated in triplicate for each sample. To capture the appropriate colonies per milliliter, the microorganism was plated at six different dilutions. […] The population count was based on the dilution of the tryptic soy broth after 72 hours and inoculation on to tryptic soy agar plates. The plates were incubated for 48 hours and enumerated. The tryptic soy broth after 72 hours was centrifuged down in a conical vial. The supernatant was pulled off and the pellet was washed. The centrifuging and washing was repeated three times. At the end of the third wash, the vials with pellet were weighed. Each vial was weighed empty and recorded. The corresponding vial weight was then subtracted from the ending weight of the pellet and vial, to get the weight of the Bacillus coagulans population. […] The slides were sealed to prevent the agar plug from slipping. The wavelength was set at 546 nm, and two empty slides were used as a blank. […] The weights indicated a heavier growth or a colony that was larger in size adding to the weight of the biomass. The percent transmittance was used to indicate Bacillus coagulans colony size in which a decrease in transmittance indicates an increase in colony size as the colony inhibited light from passing through the agar. […] It was observed that the percent transmittance result may be influenced by the sample size, sample location and agar variables.

[5] = test system: Acidophilus plus Bifidus milk microorganisms; experiment: Growth in Acidophilus plus Bifidus milk fortified with MSM; assay type: cell-based; conditions: A/B milk; remark: listed apart in the source
[6] = test system: Salmonella typhimurium; experiment: USP Antimicrobial Effectiveness Test (AET) of MSM supplemented TSB; assay type: cell-based; set-up: key: Colonies too numerous to count (TNTC); conditions: 48 hrs
[7] = test system: E. coli; experiment: E. coli log growth in MSM-lactose broth with or without DMSO; assay type: cell-based, Escherichia coli
Protocol: Lactose broth, free of both NaCl and of proteins, was used as the media in this experiment. […] Each media composition was initially inoculated with 6.75×10^6 cfu/mL of E. coli. Cultures were incubated at 25° C. for seven days. Aliquots of each culture were taken after 24 hours of culturing and at the end of seven days in culture. Aliquots were serially diluted (with Modified Letheen diluent) and plated on trypto-soy agar plates.

[8] = test system: E. coli; experiment: E. coli log growth in MSM supplemented Müller-Hinton media with or without NaCl; assay type: cell-based, Escherichia coli
Protocol: Standard Müller-Hinton media was compared to Müller-Hinton media supplemented with NaCl to the same level as the saline-based media of Example 4. […] Aliquots of each culture were taken at 24 and 48 hours, as well as 7 days.

Structure (SMILES): CS(C)(=O)=O [MSM, Methylsulfonylmethane]
- increase in log growth from previous time point ([1]; 5.0% MSM, 24 hours): 0.23 logs
- decrease in log growth from previous time point ([1]; 5.0% MSM, Hour 48): 0.33 logs
- Log Growth of L. acidophilus in milk average ([1]; 5% MSM, hour 0): 0.41 log
- Log Growth of L. acidophilus in milk average ([1]; 5% MSM, hour 3): 0.41 log
- Log Growth of L. acidophilus in milk in duplicate ([1]; 5% MSM, hour 6): 0.82 log and 1 log
- Log Growth of L. acidophilus in milk average ([1]; 5% MSM, hour 6): 0.91 log
- Log Growth of L. acidophilus in milk in duplicate ([1]; 5% MSM, hour 9): 0.52 log
- Log Growth of L. acidophilus in milk average ([1]; 5% MSM, hour 9): 0.52 log
- Log Growth of L. acidophilus in milk average ([1]; 5% MSM, hour 12): 1.10 log
- Log Growth of L. acidophilus in milk in duplicate ([1]; 5% MSM, hour 15): 1.43 log
- Log Growth of L. acidophilus in milk average ([1]; 5% MSM, hour 15): 1.43 log
- Log Growth of L. acidophilus in milk in duplicate ([1]; 5% MSM, hour 24): 1.67 log and 1.64 log
- Log Growth of L. acidophilus in milk average ([1]; 5% MSM, hour 24): 1.66 log
- Log Growth of L. acidophilus in milk in duplicate ([1]; 5% MSM, hour 48): 1.22 log and 1.43 log
- Log Growth of L. acidophilus in milk average ([1]; 5% MSM, hour 48): 1.33 log
- log growth higher than control ([1]; 5.0% MSM, listed as order: hour 15, maximum vs control maximum): 0.45 logs and 0.68 logs
- increase in log growth from previous time point ([1]; […] MSM (so in the source), 24 hours): 0.30 logs
- decrease in log growth from previous time point ([1]; […] MSM, 24 hours): 0.11 logs
- decrease in log growth from previous time point ([1]; […] MSM, Hour 48): 0.38 logs
- Log Growth of L. acidophilus in milk in duplicate ([1]; […] MSM, hour 0): 0 log
- Log Growth of L. acidophilus in milk average ([1]; […] MSM, hour 0): 0 log
- Log Growth of L. acidophilus in milk average ([1]; […] MSM, hour 9): 0.41 log
- increase in logs from hour 15 to 24 ([1]; […] and 5.0% MSM): ≥ 0.24 logs
- log increase in the next 8 hours after hour 48 ([2]; 5.0% MSM): 3.16 logs
- time to substantial growth rate increase after hour 24 ([2]; 5.0% MSM): 6 h
- log growth of Lactobacillus acidophilus ([2]; 5.0% MSM, hour 36): 8.65 logs
- Log Growth of Lactobacillus acidophilus ([2]; 5.0% MSM, 20 min Gastric): <1.00 log
- Log Growth of Lactobacillus acidophilus ([2]; 5.0% MSM, Hour 3, simulated intestinal fluid): 1.62 log
- Log Growth of Lactobacillus acidophilus ([2]; 5.0% MSM, Hour 8, simulated intestinal fluid): 2.33 log
- Log Growth of Lactobacillus acidophilus ([2]; 5.0% MSM, Hour 24, simulated intestinal fluid): 6.39 log
- Log Growth of Lactobacillus acidophilus ([2]; 5.0% MSM, Hour 30, simulated intestinal fluid): 6.63 log
- Log Growth of Lactobacillus acidophilus ([2]; 5.0% MSM, Hour 36, simulated intestinal fluid): 8.65 log
- Log Growth of Lactobacillus acidophilus ([2]; 5.0% MSM, Hour 48, simulated intestinal fluid): 10.17 log
- Log Growth of Lactobacillus acidophilus ([2]; 5.0% MSM, Hour 54, simulated intestinal fluid): 13.33 log
- Log Growth of Lactobacillus acidophilus ([2]; 5.0% MSM, Hour 60, simulated intestinal fluid): 12.76 log
- Log Growth of Lactobacillus acidophilus ([2]; 5.0% MSM, Hour 72, simulated intestinal fluid): 12.78 log
- Log Growth of Lactobacillus acidophilus ([2]; 5.0% MSM, Starting Inoculum (milk)): 7.02 log
- log increase in the next 8 hours after hour 48 ([2]; […] MSM): 2.07 logs
- Log Growth of Lactobacillus acidophilus ([2]; […] MSM, 20 min Gastric): <1.00 log
- Log Growth of Lactobacillus acidophilus ([2]; […] MSM, Starting Inoculum (milk)): 6.86 log
- Log Growth of Lactobacillus acidophilus in Milk fortified with MSM ([3]; Day 7): 10.42 log
- Log Growth of Lactobacillus acidophilus in Milk fortified with MSM ([3]; Day 21): 5.37 log
- Log Growth of Lactobacillus acidophilus in Milk fortified with MSM ([3]; Day 28): 3.94 log
- Log Growth of Lactobacillus acidophilus in Milk fortified with MSM ([3]; hour 32): 8.87 log
- Log Growth of Lactobacillus acidophilus in Milk fortified with MSM ([3]; hour 48): 8.3 log
- Log Growth of Lactobacillus acidophilus in Milk fortified with MSM ([3]; hour 72): 8.45 log
- Log Growth of Lactobacillus acidophilus in Milk fortified with MSM ([3]; hour 80): 9.82 log
- Population Count Average ([4]; 1.0% MSM in TSB): 1.01 × 10^11
- Population Weight Average ([4]; 1.0% MSM in TSB): 0.1363
- percent transmittance ([4]; 1.0% MSM): 51.5%
- Population Count Average ([4]; 5.0% MSM in TSB): 2.8 × 10^11
- Population Weight Average ([4]; 5.0% MSM in TSB): 0.1260
- percent transmittance ([4]; 5.0% MSM): 45.6%
- Population Count Average ([4]; […] MSM in TSB): 3.3 × 10^11
- Population Weight Average ([4]; […] MSM in TSB): 0.9828
- percent transmittance ([4]; […] MSM): 49.8%
- Log Growth of Lactobacillus acidophilus in Milk fortified with MSM ([5]; hour 0): 6.41 log
- Log Growth of Lactobacillus acidophilus in Milk fortified with MSM ([5]; hour 8): 8.67 log
- Log Growth of Lactobacillus acidophilus in Milk fortified with MSM ([5]; hour 24): 9.16 log
- Log Growth of Lactobacillus acidophilus in Milk fortified with MSM ([5]; hour 56): 8.56 log
- Log Growth of Lactobacillus acidophilus in Milk fortified with MSM ([5]; hour 96): 8.61 log
- Log Growth of Lactobacillus acidophilus in Milk fortified with MSM ([5]; hour 104): 8.92 log
- AET test results (microorganism count) ([6]; 1:100 dilution of MSM in TSB): TNTC
- AET test results (microorganism count) ([6]; 1:1000 dilution of MSM in TSB): TNTC
- reduction of bacterial growth ([7]; 11% MSM, 24 hours (maximum)): about 2.2 logs
- reduction of bacterial growth ([7]; 16% MSM, 24 hours): about 1 log
- log reduction in E. coli ([8]; FMHS media, 12% MSM, 7 days): 3 log
- reduction of E. coli growth ([8]; MSM concentrations greater than 13%, 48 hours): 1-2 logs
- Log growth of E. coli ([8]; after 24 hours, FMH (flaked MSM, Müller-Hinton), rows 16-5% MSM): 6.2 log
- log reduction from the initial inoculum ([8]; all media, MSM concentrations greater than 13%, 24 hours): approximately 1 log
